IC50 and Ki data for 24 compounds are collected here from US12378186B2, “Inhibitors of meprin α and β” (VIVORYON THERAPEUTICS N.V., priority 2016, dated 2025).

Test [1] concerns the target T1, hMeprin α (Homo sapiens, UniProt Q16819).
T1 sequence (Q16819 66-746): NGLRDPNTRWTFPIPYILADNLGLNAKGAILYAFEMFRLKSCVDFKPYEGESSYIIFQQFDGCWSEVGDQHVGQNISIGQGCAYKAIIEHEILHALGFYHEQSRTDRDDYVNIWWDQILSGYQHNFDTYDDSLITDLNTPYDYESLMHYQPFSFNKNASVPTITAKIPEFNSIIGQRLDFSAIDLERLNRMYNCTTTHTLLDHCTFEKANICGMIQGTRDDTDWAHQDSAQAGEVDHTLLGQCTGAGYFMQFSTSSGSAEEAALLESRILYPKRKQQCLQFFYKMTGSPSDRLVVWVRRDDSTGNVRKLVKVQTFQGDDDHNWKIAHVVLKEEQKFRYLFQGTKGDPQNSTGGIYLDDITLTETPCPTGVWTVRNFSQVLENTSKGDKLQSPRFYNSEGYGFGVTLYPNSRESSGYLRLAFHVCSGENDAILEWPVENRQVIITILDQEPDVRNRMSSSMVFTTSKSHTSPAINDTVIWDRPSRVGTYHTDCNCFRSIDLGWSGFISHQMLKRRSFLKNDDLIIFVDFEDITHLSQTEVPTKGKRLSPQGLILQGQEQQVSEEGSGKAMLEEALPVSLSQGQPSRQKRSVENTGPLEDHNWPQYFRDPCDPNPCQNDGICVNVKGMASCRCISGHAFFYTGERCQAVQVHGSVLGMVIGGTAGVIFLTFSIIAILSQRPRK
Kind of test: biochemical. In kind it is biochemical. As to the method: (§1) A typical assay of 250 μl total volume measured in black 96 well plates consisted of 100 μl buffer, 50 μl enzyme at a final concentration of 5e-8 M to 5e-9 M, 50 μl substrate (0.15 to 80 μM, in buffer, 0.5% DMSO) and 50 μl inhibitor solution (in buffer, 1% DMSO). In case of 125 μl assay volume (black 96 half area well plates) all volumes were cut in half. Enzymatic activity of ADAMs was measured in 384 well plates with 60 μl total assay volume consisting of 20 μl inhibitor, 20 μl buffer, 10 μl enzyme and 10 μl substrate.
(§2) Ki values were assessed combining 4 substrate concentrations (5-40 μM) with at least 5 inhibitor concentrations. […] Initial velocities were determined and converted into concentration units applying a standard curve obtained after complete conversion of different substrate concentrations under assay conditions. All measurements were performed using a fluorescence plate reader (FLUOstar OPTIMA, BMG Labtech) at 30° C. The kinetic parameters were determined at least in duplicates on separate days. The excitation/emission wavelength was 340/420 nm. The kinetic data was evaluated using GraFit software (version 7.0.3, Erithacus Software).
(§3) The following compounds according to the present invention were synthesized using the above general procedures. IC50 refers to the average IC50 values measured as described above, SD (IC50) refers to the standard deviation of the average IC50 values, Ki refers to the average K; values measured as described above, and SD (Ki) to the standard deviation of the average Ki values.

Test [2] addresses T2, hMeprin β (Homo sapiens, UniProt Q16820).
T2 sequence (Q16820 62-701): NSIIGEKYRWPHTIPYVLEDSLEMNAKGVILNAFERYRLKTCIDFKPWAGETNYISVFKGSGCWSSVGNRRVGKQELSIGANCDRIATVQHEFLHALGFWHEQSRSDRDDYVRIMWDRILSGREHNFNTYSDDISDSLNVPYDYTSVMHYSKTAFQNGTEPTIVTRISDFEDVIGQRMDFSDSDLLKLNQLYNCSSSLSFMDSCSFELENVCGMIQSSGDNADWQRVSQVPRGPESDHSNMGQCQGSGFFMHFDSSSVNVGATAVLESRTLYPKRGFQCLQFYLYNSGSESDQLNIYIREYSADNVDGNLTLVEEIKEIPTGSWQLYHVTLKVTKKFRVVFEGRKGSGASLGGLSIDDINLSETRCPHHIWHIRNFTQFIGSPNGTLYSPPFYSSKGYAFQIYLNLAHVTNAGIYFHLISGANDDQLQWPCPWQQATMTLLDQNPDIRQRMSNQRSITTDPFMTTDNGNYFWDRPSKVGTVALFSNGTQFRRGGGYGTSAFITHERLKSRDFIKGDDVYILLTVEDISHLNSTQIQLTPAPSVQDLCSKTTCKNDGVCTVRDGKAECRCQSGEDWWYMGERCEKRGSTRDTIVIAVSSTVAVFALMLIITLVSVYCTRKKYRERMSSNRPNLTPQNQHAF
Nature of the test: Enzymatic assay, cleavage of internally quenched peptide substrate, hMeprin β. In kind it is biochemical. The method, then: as §1, §2, §3

The mark [3] stands for this setting: average IC50, 10 μM substrate, 30° C., 40 mM HEPES pH 7.4, read-out: Meprin Alpha IC50.
The mark [4] stands for this setting: average Ki, 4 substrate concentrations (5-40 μM), 30° C., 40 mM HEPES pH 7.4, read-out: Meprin Alpha Ki.
Where [5] appears, read: average IC50, 10 μM substrate, 30° C., 40 mM Tris pH 8.0, read-out: Meprin Beta IC50.

In general, IC50 refers to the concentration that gives 50% inhibition. As a reminder, the Ki is the dissociation constant of the complex between target and ligand, obtained from inhibition or displacement.

Like-named read-outs stand apart in the source and are kept apart here.

For the compound `O=C(CN(Cc1ccc(Cl)cc1)Cc1cccc(C(=O)O)c1)NO` [Example 20, 3-[[(4-Chlorophenyl)methyl-[2-(hydroxyamino)-2-oxo-ethyl]amino]methyl]benzoic acid], the results for the IC50 in test [1] (setting [3]) and in test [2] (setting [5]) were 1.79 µM and 0.076 µM, respectively. In addition, the inhibition constant Ki in test [1] (setting [4]) is 796 nM; in test [2] it was 33 nM.
For the compound `O=C(CN(Cc1ccc(F)cc1)Cc1cccc(C(=O)O)c1)NO` [Example 21, 3-[[(4-Fluorophenyl)methyl-[2-(hydroxyamino)-2-oxo-ethyl]amino]methyl]benzoic acid], the IC50 in test [1] is 4.21 µM; in test [2] (setting [5]), 0.177 µM. Moreover, the Ki in test [1] and in test [2] was 1680 nM in each case.
As to `O=C(CN(Cc1cccc(C(=O)O)c1)Cc1ccc2c(c1)OCO2)NO` [Example 22, 3-[[1,3-Benzodioxol-5-ylmethyl-[2-(hydroxy-amino)-2-oxo-ethyl]amino]-methyl]benzoic acid], the IC50 in test [1] (setting [3]) came to 1.43 µM. Besides, the inhibitory constant (Ki) in test [1] (setting [4]) worked out at 606 nM; in test [2] it was 105 nM.
Regarding `COc1ccc(CN(CC(=O)NO)Cc2ccc3c(c2)OCO3)cc1` [Example 23], the IC50 was 1.68 µM in test [1] (setting [3]) and 20 µM in test [2].
For the compound `COc1ccc(CN(CC(=O)NO)Cc2ccc(C)cc2)cc1` [Example 24, 2-[(4-Methoxyphenyl)methyl-(p-tolylmethyl)-amino]ethanehydroxamic acid], the IC50 in test [1] (setting [3]) was 2.33 µM; in test [2], 60.9 µM.
For `COc1ccc(CN(CC(=O)NO)Cc2ccc(F)cc2)cc1` [Example 25, 2-[(4-fluorophenyl)methyl-[(4-methoxyphenyl)-methyl]amino]ethanehydroxamic acid], in that order: 4.13 µM and 80.4 µM.
Take `COc1ccc(CN(CC(=O)NO)Cc2ccc(Cl)cc2)cc1` [Example 26, 2-[(4-Chlorophenyl)methyl-[(4-methoxyphenyl)-methyl]amino]ethanehydroxamic acid]: the IC50 is 1.99 µM in test [1] (setting [3]) and 53.4 µM in test [2].
The like results for `COc1ccc(CN(CC(=O)NO)Cc2cccc(OC)c2)cc1` [Example 27, 2-[(3-Methoxyphenyl)methyl-[(4-methoxyphenyl)-methyl]amino]ethanehydroxamic acid] were, in that order, 3.2 µM and 34.5 µM.
Consider `C[C@H](NCc1cccc(C(=O)O)c1)C(=O)NO` [Example 28, 3-[[[(1S)-2-(Hydroxyamino)-1-methyl-2-oxo-ethyl]amino]methyl]benzoic acid], for which the results for the IC50 in test [1] (setting [3]) and in test [2] (setting [5]) were 16.7 µM and 4.2 µM, respectively. The same compound gave an inhibition constant Ki in test [2] of 3100 nM.
Regarding `CC(C)[C@H](NCc1cccc(C(=O)O)c1)C(=O)NO` [Example 29, 3-[[[(1S)-1-(Hydroxycarbamoyl)-2-methyl-propyl]amino]methyl]benzoic acid], the IC50 in test [1] (setting [3]) is 44.4 µM; in test [2] (setting [5]) it was 15.8 µM.
For `O=C(O)c1cccc(CN[C@@H](Cc2ccccc2)C(=O)NO)c1` [Example 30, 3-[[[(1S)-1-Benzyl-2-(hydroxyamino)-2-oxo-ethyl]amino]methyl]benzoic acid], in that order: 10.2 µM and 15.5 µM.
On to `COc1ccc(CN(CCC(=O)NO)Cc2cccc(C(=O)O)c2)cc1` [Example 31, 3-[[[3-(Hydroxyamino)-3-oxo-propyl]-[(4-methoxyphenyl)methyl]amino]-methyl]benzoic acid], for which the IC50 in test [1] (setting [3]) was 0.233 µM; in test [2] (setting [5]), 0.643 µM. Besides, the results for the inhibition constant (Ki) in test [1] (setting [4]) and in test [2] were 87 nM and 165 nM, respectively.
In the case of `CC(C)(NCc1cccc(C(=O)O)c1)C(=O)NO` [Example 32, 3-[[[2-(Hydroxyamino)-1,1-dimethyl-2-oxo-ethyl]amino]methyl]benzoic acid], the concentration for half-maximal inhibition (IC50) was 265 µM in test [1] (setting [3]) and 39.3 µM in test [2].
For `C[C@@H](NCc1cccc(C(=O)O)c1)C(=O)NO` [Example 33, 3-{[[(1R)-2-(Hydroxyamino)-1-methyl-2-oxo-ethyl]amino]methyl]benzoic acid], the IC50 stood at 45.1 µM in test [1] (setting [3]) and 4.25 µM in test [2] (setting [5]). The same compound had a Ki in test [2] of 2580 nM.
Consider `CC(C)[C@@H](NCc1cccc(C(=O)O)c1)C(=O)NO` [Example 34, 3-[[[(1R)-1-(Hydroxycarbamoyl)-2-methyl-propyl]amino]methyl]benzoic acid], for which the IC50 in test [1] (setting [3]) stood at 30 µM; in test [2] (setting [5]) it was 11.8 µM.
In the case of `O=C(O)c1cccc(CN[C@H](Cc2ccccc2)C(=O)NO)c1` [Example 35, 3-[[[(1R)-1-Benzyl-2-(hydroxyamino)-2-oxo-ethyl]amino]methyl]benzoic acid], the IC50 worked out at 2.65 µM in test [1] (setting [3]) and 2.91 µM in test [2] (setting [5]). Further, in test [2], the inhibitory constant (Ki) is 1360 nM.
With `O=C(O)c1cccc(CN[C@@H](C(=O)NO)c2ccccc2)c1` [Example 36, 3-[[[(1R)-2-(Hydroxyamino)-2-oxo-1-phenyl-ethyl]amino]methyl]benzoic acid], the IC50 in test [1] (setting [3]) was 21.7 µM; in test [2] (setting [5]), 11.7 µM.
As to `O=C(O)c1cccc(CN[C@H](C(=O)NO)c2ccccc2)c1` [Example 37, 3-[[[(1S)-2-(Hydroxyamino)-2-oxo-1-phenyl-ethyl]amino]methyl]benzoic acid], the results for the IC50 in test [1] (setting [3]) and in test [2] (setting [5]) were 26.3 µM and 12.2 µM, respectively.
Regarding `COc1ccc(CN(CCCC(=O)NO)Cc2cccc(C(=O)O)c2)cc1` [Example 38, 3-[[[4-(hydroxyamino)-4-oxo-butyl]-[(4-methoxyphenyl)methyl]amino]-methyl]benzoic acid], the IC50 in test [1] (setting [3]) was 2.61 µM; in test [2] (setting [5]), 0.742 µM. For the same compound, the Ki in test [1] (setting [4]) was 948 nM; in test [2] it was 225 nM.
The like results for `O=C(O)CC[C@H](NCc1cccc(C(=O)O)c1)C(=O)NO` [Example 39, 3-[[[(1S)-3-carboxy-1-(hydroxylcarbamoyl)-propyl]amino]methyl]benzoic acid] were, in that order, 8.66 µM, 0.654 µM, 2530 nM and 325 nM.
Consider `N#Cc1cccc(CN(CC(=O)NO)Cc2cccc(C#N)c2)c1` [Example 40, 2-[bis[(3-cyanophenyl)methyl]amino]-ethanehydroxamic acid], for which the IC50 in test [1] (setting [3]) was found to be 1.47 µM; in test [2] (setting [5]), 12 µM. Further, the Ki in test [1] (setting [4]) was determined as 521 nM.
Regarding `NC(=O)c1cccc(CN(CC(=O)NO)Cc2cccc(C(N)=O)c2)c1` [Example 41, 3-[[(3-carbamoylphenyl)methyl-[2-(hydroxyamino)-2-oxo-ethyl]amino]methyl]benzamide], the IC50 came out at 2.9 µM in test [1] (setting [3]) and 13.1 µM in test [2] (setting [5]). Further, the Ki in test [1] (setting [4]) turned out to be 852 nM.
As for `COC(=O)c1cccc(CN(CC(=O)NO)Cc2cccc(C(N)=O)c2)c1` [Example 42], the IC50 worked out at 3.54 µM in test [1] (setting [3]) and 25 µM in test [2]. For the same compound, in test [1] (setting [4]), the Ki stood at 1190 nM.
Turning to `COC(=O)c1cccc(CN(CC(=O)NO)Cc2cccc(C(=O)O)c2)c1` [Example 43], the IC50 in test [1] (setting [3]) was 6.28 µM; in test [2], 0.516 µM. The Ki in test [1] (setting [4]) is 1740 nM; in test [2] it was 152 nM.
